Experimental data: patent US20230002361A1, “2H-INDAZOLE DERIVATIVES AND THEIR USE IN THE TREATMENT OF DISEASE” (BIOGEN MA INC., priority 2019, published 2023)
Structures can show the parent of a compound that is named as a salt. Where two headings read alike, the source gives them in different places.

How the values were obtained:
[1] = target: T1, IRAK4 (Homo sapiens, UniProt Q9NWZ3); assay: IRAK4 MSD Biochemical Assay (1 mM ATP, 2 h); conditions: room temperature
T1 construct: with 0.1 nM IRAK4, 1.6 μM of biotinylated peptide substrate and 10 μM ATP
T1 sequence (Q9NWZ3 1-460): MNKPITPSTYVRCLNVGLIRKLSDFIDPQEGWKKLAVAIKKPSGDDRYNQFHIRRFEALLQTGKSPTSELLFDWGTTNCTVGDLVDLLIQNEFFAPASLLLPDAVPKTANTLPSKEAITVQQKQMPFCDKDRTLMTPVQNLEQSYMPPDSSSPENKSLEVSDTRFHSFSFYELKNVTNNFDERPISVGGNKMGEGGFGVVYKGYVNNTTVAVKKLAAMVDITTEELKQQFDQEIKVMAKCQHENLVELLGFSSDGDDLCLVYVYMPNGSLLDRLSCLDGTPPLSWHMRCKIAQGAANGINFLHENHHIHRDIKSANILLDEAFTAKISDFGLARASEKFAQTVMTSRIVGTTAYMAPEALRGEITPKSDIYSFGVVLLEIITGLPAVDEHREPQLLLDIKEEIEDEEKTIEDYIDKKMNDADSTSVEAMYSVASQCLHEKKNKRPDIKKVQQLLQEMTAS
Method: The 2-hour 10 μM ATP Biochemical Assay employs a MesoScale Detection (MSD) format.
The activity is quenched with 11 μl of 70 mM EDTA, pH 8.
To detect the phosphorylated biotinylated peptide substrate, 30 μl of the quenched reaction mixture is added to equivalent wells of a 384 well streptavidin coated MesoScale plate (Meso Scale Discovery #L21SA-1). After a 1 hour incubation of the plate for 1 hour at room temperature with gentle mixing, the plate wells are washed 3 times with 50 mM Tris, pH 7.5, 150 mM NaCl, 0.02% Tween-20.
A 25 μl volume of 1:500 anti-P-Threonine Rabbit polyclonal Antibody plus 1:500 Goat-anti-Rabbit Sulfo Tag Antibody (Meso Scale Discovery R32AB-1) in 50 mM Tris, pH 7.5, 150 mM NaCl, 0.02% Tween-20 plus 2% BSA is then added to each well. After a 1-hour incubation of the plate for 1 hour at room temperature with gentle mixing, the plate wells are washed, 3 times with 50 mM Tris, pH 7.5, 150 mM NaCl, 0.02% Tween-20. A 40 μl volume of 2×MSD Read Buffer (Meso Scale Discovery R92TC-1) is added to each well, and the plate is read immediately in an MSD Plate Reader (Meso Scale Discovery).
The 2-hour 1 mM ATP IRAK4 Biochemical assay was performed as described above, but with […] IRAK4 and 1 mM ATP.

[2] = target: T2, MDR1 (P-gp) (Homo sapiens, UniProt P08183); assay: MDR1-MDCK assay (efflux ratio); format: in vitro ADME; conditions: human, MDCK-MDR1, 1 μM compound, 120 minutes incubation; read-out: MDR1-MDCK Efflux Ratio; (B-A/A-B)
T2 construct: host or cells: MDCK cells
T2 sequence (P08183 whole entry): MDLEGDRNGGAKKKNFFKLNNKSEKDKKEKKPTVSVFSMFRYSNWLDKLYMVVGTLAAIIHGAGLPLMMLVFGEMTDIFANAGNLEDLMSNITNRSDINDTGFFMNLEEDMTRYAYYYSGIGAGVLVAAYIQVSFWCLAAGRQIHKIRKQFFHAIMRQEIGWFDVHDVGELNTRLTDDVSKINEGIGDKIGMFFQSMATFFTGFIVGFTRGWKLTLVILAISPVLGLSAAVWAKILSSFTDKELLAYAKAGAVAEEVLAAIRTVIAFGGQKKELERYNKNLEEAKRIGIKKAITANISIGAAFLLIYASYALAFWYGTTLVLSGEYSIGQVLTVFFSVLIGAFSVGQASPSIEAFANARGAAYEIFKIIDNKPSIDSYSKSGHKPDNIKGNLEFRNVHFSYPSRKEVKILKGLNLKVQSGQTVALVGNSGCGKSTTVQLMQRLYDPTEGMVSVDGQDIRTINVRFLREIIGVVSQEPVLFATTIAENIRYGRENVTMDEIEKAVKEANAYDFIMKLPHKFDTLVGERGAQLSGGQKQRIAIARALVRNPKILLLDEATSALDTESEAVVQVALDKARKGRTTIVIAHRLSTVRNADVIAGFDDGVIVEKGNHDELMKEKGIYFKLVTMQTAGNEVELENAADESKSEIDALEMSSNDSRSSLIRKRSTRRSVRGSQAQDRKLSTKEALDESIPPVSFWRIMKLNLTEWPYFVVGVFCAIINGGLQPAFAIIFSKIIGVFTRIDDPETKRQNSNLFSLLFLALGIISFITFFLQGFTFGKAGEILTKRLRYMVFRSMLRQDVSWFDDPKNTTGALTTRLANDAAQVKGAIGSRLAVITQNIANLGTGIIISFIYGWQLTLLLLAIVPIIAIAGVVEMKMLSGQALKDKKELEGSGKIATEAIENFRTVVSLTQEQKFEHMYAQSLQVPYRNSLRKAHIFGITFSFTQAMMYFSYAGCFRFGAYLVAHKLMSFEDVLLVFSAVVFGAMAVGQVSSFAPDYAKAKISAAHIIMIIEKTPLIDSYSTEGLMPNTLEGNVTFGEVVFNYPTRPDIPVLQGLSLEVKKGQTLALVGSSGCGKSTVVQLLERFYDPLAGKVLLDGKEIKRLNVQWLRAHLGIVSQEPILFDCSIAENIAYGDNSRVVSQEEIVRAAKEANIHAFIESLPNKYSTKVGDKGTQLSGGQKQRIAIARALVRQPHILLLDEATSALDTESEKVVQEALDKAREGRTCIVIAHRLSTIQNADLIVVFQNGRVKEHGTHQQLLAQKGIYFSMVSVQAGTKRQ
Method: • The assay makes use of human MDR1 transfected MDCK cells (NIH cell line in-licensed from Absorption Systems) • The compounds are tested at 1 μM concentration prepared in transport buffer (Hank's balanced salt solution with HEPES) • MDR1-MDCK cell are cultured for 7 days in 96 well transwell insert plates (Corning). Insert plates are washed before the assay and TEER (Trans epithelial electric resistance) is measured. • These plates are loaded with test compound solution 85 μL for A-B transport and 260 μL for B-A transport in the respective donor compartment.
Mass balance=100×((Vr×Cr^final)+(Vd×Cd^final))/(Vd×CE) • Where: • dCr/dt is the cumulative concentration in the receiver compartment versus time in μM s^−1 • Vr is the volume of the receiver compartment in cm^3 • Vd is the volume of the donor compartment in cm^3 • A is the area of the insert (0.143 cm^2 for 96-well insert) • CE is the estimated experimental concentration (Time=0) of the dosing solution • Cr^final is the concentration of the receiver at the end of the incubation period • Cd^final is the concentration of the donor at the end of the incubation period.

[3] = read-out: IRAK4 MSD Biochemical Assay (1 mM ATP, 2 h) IC50
[4] = IRAK4 MSD Biochemical Assay (1 mM ATP, 2 h) IC50 (nM)

Compound	IC50 [1, 3] [nM]	efflux ratio at 120 min, 1 μM [2]	IC50 [1, 4] [nM]
CC(C)Oc1cc2nn(C34COC(C)(C3)C4)cc2cc1C(=O)Nc1cnn2cc(F)cnc12 [Example 96, N-(6-fluoropyrazolo[1,5-a]pyrimidine-3-yl)-6-isopropoxy-2-(1-methyl-2-oxabicyclo[2.1.1]hexan-4-yl)-2H-indazole-5-carboxamide trifluoroacetate]	1.4	1.6	–
CC(C)Oc1cc2nn(C3CCOCC3)cc2cc1C(=O)Nc1ccn(C)n1 [Example 67, 6-Isopropoxy-N-(1-methyl-1H-pyrazol-3-yl)-2-(tetrahydro-2H-pyran-4-yl)-2H-indazole-5-carboxamide]	9.5	4.6	–
CC(C)Oc1cc2nn(C34COC(C)(C3)C4)cc2cc1C(=O)Nc1cccn(C(F)F)c1=O [Example 91, N-(1-(difluoromethyl)-2-oxo-1,2-dihydropyridin-3-yl)-6-isopropoxy-2-(1-methyl-2-oxabicyclo[2.1.]hexan-4-yl)-2H-indazole-5-carboxamide tfifluoroacetate]	–	0.8	0.3
CC(C)Oc1nc2nn(CCC(C)(C)O)cc2cc1C(=O)Nc1cccc(C(F)F)n1 [Example 32, N-(6-(difluoromethyl)pyridin-2-yl)-2-(3-hydroxy-3-methylbutyl)-6-isopropoxy-2H-pyrazolo[3,4-b]pyridine-5-carboxamide]	0.4	3.4	–
CCOc1cc2nn(C34COC(C)(C3)C4)cc2cc1C(=O)Nc1cccn(C)c1=O [Example 86, 6-Ethoxy-N-(1-methyl-2-oxo-1,2-dihydropyridin-3-yl)-2-(1-methyl-2-oxabicyclo[2.1.1]hexan-4-yl)-2H-indazole-5-carboxamide tfifluoroacetate]	–	1.8	3.7
Cc1ccn2ncc(NC(=O)c3cc4cn(C5CCCOC5)nc4nc3OC3CCC3)c2n1 (single isomer, unassigned) [Example 133]	1.7	2.6	–
CC(C)Oc1nc2nn(C3CCCOC3)cc2cc1C(=O)Nc1cnn2cccnc12 (stereo not drawn) [Example 36, 6-Isopropoxy-N-(pyrazolo[1,5-a]pyrimidin-3-yl)-2-(tetrahydro-2H-pyran-3-yl)-2H-pyrazolo[3,4-b]pyridine-5-carboxamide]	0.5	2.2	–
COc1cccc(NC(=O)c2cc(OC)c3nn(C4CCOCC4)cc3c2)n1.Cl [Example 16, 7-Methoxy-N-(6-methoxypyridin-2-yl)-2-(tetrahydro-2H-pyran-4-yl)-2H-indazole-5-carboxamide hydrochloride]	211	3	–
O=C(Nc1ccn(C(F)F)n1)c1cc2cn(C[C@H]3CCOC3)nc2nc1OC1CCCC1 (single isomer, unassigned) [Example 116]	3.8	2.5	–
CC(C)Oc1cc2nn(C3CCOCC3)cc2cc1C(=O)Nc1cccn2nccc12.Cl [Example 71, 6-Isopropoxy-N-(pyrazolo[1,5-a]pyridin-4-yl)-2-(tetrahydro-2H-pyran-4-yl)-2H-indazole-5-carboxamide hydrochloride]	6.6	1.6	–
Cl.O=C(Nc1cccc(C(F)F)n1)c1cc2cn(C3CCOCC3)nc2cc1O[C@H]1C[C@H](C(F)F)C1 [Example 48, 6-((1R,3R)-3-(difluoromethyl)cyclobutoxy)-N-(6-(difluoromethyl)pyridin-2-yl)-2-(tetrahydro-2H-pyran-4-yl)-2H-indazole-5-carboxamide Hydrochloride]	0.5	1.3	–

More lines, main results first:

IC50 [1, 3] [nM]	efflux ratio at 120 min, 1 μM [2]	Compound	IC50 [1, 4] [nM]
0.7	1.9	CCOc1cc2nn(CCC(C)(C)O)cc2cc1C(=O)Nc1cccc(C(F)F)n1 [Example 31, N-(6-(difluoromethyl)pyridin-2-yl)-6-ethoxy-2-(3-hydroxy-3-methylbutyl)-2H-indazole-5-carboxamide]	–
32.7	1.1	COc1cccc(NC(=O)c2cc3cn(CC4CCOC4)nc3cc2OC)n1.O=C(O)C(F)(F)F (stereo not drawn) [Example 1, 6-Methoxy-N-(6-methoxypyridin-2-yl)-2-((tetrahydrofuran-3-yl)methyl)-2H-indazole-5-carboxamide Trifluoroacetate]	–
0.4	0.5	CC(C)Oc1cc2nn([C@]34CC[C@](C)(C3)OC4)cc2cc1C(=O)Nc1cccc(C(F)F)n1 (single isomer, unassigned) [Example 125]	–
7.1	0.9	COc1cc2nn(C[C@H]3CCOC3)cc2cc1C(=O)Nc1cccc(C(F)F)n1 (single isomer, unassigned) [Example 18]	–
0.3	1.2	CC(C)Oc1cc2nn([C@@H]3CCOC(C)(C)C3)cc2cc1C(=O)Nc1cccc(C(F)F)n1 (single isomer, unassigned) [Example 46]	–
2.7	2.1	CC(C)Oc1nc2nn(C[C@@H]3CCOC3)cc2cc1C(=O)Nc1ccn(C(F)F)n1 (single isomer, unassigned) [Example 111]	–
0.3	0.6	CC(C)Oc1cc2nn(C3CCOCC3)cc2cc1C(=O)Nc1cccc(C(F)F)n1.Cl [Example 25, N-(6-(difluoromethyl)pyridin-2-yl)-6-isopropoxy-2-(tetrahydro-2H-pyran-4-yl)-2H-indazole-5-carboxamide hydrochloride]	–
20	1.1	CC(C)Oc1c(C(=O)Nc2cccc(C(F)F)n2)cc2cn(C3CCOCC3)nc2c1Cl [Example 124, 7-Chloro-N-(6-(difluoromethyl)pyridin-2-yl)-6-isopropoxy-2-(tetrahydro-2H-pyran-4-yl)-2H-indazole-5-carboxamide Trifluoroacetate]	–
0.2	0.5	CC(C)Oc1cc2nn([C@@]34CC[C@@](C)(C3)OC4)cc2cc1C(=O)Nc1cccc(C(F)F)n1 (single isomer, unassigned) [Example 126]	–
1.1	2.9	O=C(Nc1cccc(C(F)F)n1)c1cc2cn(C3CCOCC3)nc2cc1OC1CCOC1 (stereo not drawn) [Example 75, N-(6-(difluoromethyl)pyridin-2-yl)-2-(tetrahydro-2H-pyran-4-yl)-6-((tetrahydrofuran-3-yl)oxy)-2H-indazole-5-carboxamide]	–
10000	0.9	COc1cccc(NC(=O)c2cc3cn(CC45COC(C)(C4)C5)nc3cc2OC)n1.O=C(O)C(F)(F)F [Example 3, 6-Methoxy-N-(6-methoxypyridin-2-yl)-2-((1-methyl-2-oxabicyclo[2.1.1]hexan-4-yl)methyl)-2H-indazole-5-carboxamide trifluoroacetate]	–
0.4	1.7	CC(C)Oc1cc2nn(CCC(C)(C)O)cc2cc1C(=O)Nc1cccc(C(F)F)n1 [Example 13, N-(6-(difluoromethyl)pyridin-2-yl)-2-(3-hydroxy-3-methylbutyl)-6-isopropoxy-2H-indazole-5-carboxamide]	–
0.9	0.7	COCCCn1cc2cc(C(=O)Nc3cccc(C(F)F)n3)c(OC(C)C)cc2n1.Cl [Example 26, N-(6-(difluoromethyl)pyridin-2-yl)-6-isopropoxy-2-(3-methoxypropyl)-2H-indazole-5-carboxamide hydrochloride]	–
